assay: The compound was tested for binding constant against d-Ala-d-Ala termini on bacterial cell surface

| SMILES | KA |
| --- | --- |
| C[C@@H](NC(=O)[C@@H](C)NC(=O)CNS(=O)(=O)c1cccc2c(N(C)C)cccc12)C(=O)O | 1.3 mM⁻¹ |
| C[C@H](NC(=O)[C@H](C)NC(=O)CNS(=O)(=O)c1cccc2c(N(C)C)cccc12)C(=O)O | 1.1 mM⁻¹ |
| C[C@H](NC(=O)CNS(=O)(=O)c1cccc2c(N(C)C)cccc12)C(=O)N[C@H](C)C(=O)O | 16 mM⁻¹ |
| C[C@H](NC(=O)CNS(=O)(=O)c1cccc2c(N(C)C)cccc12)C(=O)O[C@H](C)C(=O)O | < 0.02 mM⁻¹ |

— ChEMBL document CHEMBL1152017, “Peptide-binding antibiotics: A solid-phase assay for screening libraries of vancomycin mimics for selective d-Ala-d-Ala binding” (Bioorg Med Chem Lett, 1997)
